Source: the NIST ThermoML archive (doi:10.1021/je4001944)
± gives the expanded uncertainty stated by the source.

Details: 101 kPa, Liquid

SMILES | mass density (298.15 K) [kg/m3] | mass density (308.15 K) [kg/m3] | mass density (323.15 K) [kg/m3]
CCCCCCCCn1cc[n+](C)c1.O=S(=O)([N-]S(=O)(=O)C(F)(F)F)C(F)(F)F | 1343 ± 11 | 1323 ± 10 | 1287 ± 10
CCCCCC[n+]1ccn(C)c1.O=S(=O)([N-]S(=O)(=O)C(F)(F)F)C(F)(F)F | 1391 ± 11 | 1373 ± 11 | 1340 ± 10
CCCCCCCCCCn1cc[n+](C)c1.O=S(=O)([N-]S(=O)(=O)C(F)(F)F)C(F)(F)F | 1284 ± 10 | 1256 ± 10 | 1221 ± 10
